In brackets after ≈: the same amount, converted by molar mass.

Holding throughout (type): functional
Experiment [1] concerns Pseudomonas aeruginosa. The experiment in a line: Synergistic antibacterial activity against Pseudomonas aeruginosa PAO1 assessed as aztreonam MIC upto […] ug/ml incubated for 18 hrs by checkerboard method (reference value: 8 microg/ml).
Experiment [2] relates to Pseudomonas aeruginosa. The experiment in a line: Antibacterial activity against Pseudomonas aeruginosa PAO1 assessed as inhibition of bacterial growth incubated for 18 hrs by agar dilution method. Background: In agar dilution, organisms are placed on agar that contains the substance at set levels.
Experiment [3] deals with Pseudomonas aeruginosa. The experiment in a line: Antibacterial activity against Pseudomonas aeruginosa 16-11 assessed as inhibition of bacterial growth incubated for 18 hrs by agar dilution method.
The test system of experiment [4] is Pseudomonas aeruginosa. Kind of experiment: Antibacterial activity against Pseudomonas aeruginosa 21-8 assessed as inhibition of bacterial growth incubated for 18 hrs by agar dilution method.
Experiment [5] concerns Pseudomonas aeruginosa. The experiment in a line: Antibacterial activity against Pseudomonas aeruginosa 13-35 assessed as inhibition of bacterial growth incubated for 18 hrs by agar dilution method.
For experiment [6], the system named is Pseudomonas aeruginosa. Kind of experiment: Antibacterial activity against Pseudomonas aeruginosa 23-Y122 assessed as inhibition of bacterial growth incubated for 18 hrs by agar dilution method.
The test system of experiment [7] is Pseudomonas aeruginosa. The experiment in a line: Antibacterial activity against Pseudomonas aeruginosa 23-Y372 assessed as inhibition of bacterial growth incubated for 18 hrs by agar dilution method.
Experiment [8] has as its system Pseudomonas aeruginosa. Kind of experiment: Antibacterial activity against Pseudomonas aeruginosa 23-Y417 assessed as inhibition of bacterial growth incubated for 18 hrs by agar dilution method. Conditions: read-out: MIC.
For experiment [9], the system named is Pseudomonas aeruginosa. Kind of experiment: Antibacterial activity against Pseudomonas aeruginosa 23-Y511 assessed as inhibition of bacterial growth incubated for 18 hrs by agar dilution method.
Experiment [10] relates to Pseudomonas aeruginosa. Kind of experiment: Antibacterial activity against Pseudomonas aeruginosa 12-1 assessed as inhibition of bacterial growth incubated for 18 hrs by agar dilution method.
In experiment [11] the test system is Pseudomonas aeruginosa. Kind of experiment: Antibacterial activity against Pseudomonas aeruginosa 13-3 assessed as inhibition of bacterial growth incubated for 18 hrs by agar dilution method.
In experiment [12] the test system is Pseudomonas aeruginosa. Kind of experiment: Antibacterial activity against Pseudomonas aeruginosa 13-17 assessed as inhibition of bacterial growth incubated for 18 hrs by agar dilution method.
The subject of experiment [13] is Pseudomonas aeruginosa. The experiment in a line: Antibacterial activity against Pseudomonas aeruginosa 16-2 assessed as inhibition of bacterial growth incubated for 18 hrs by agar dilution method.
Experiment [14] deals with Pseudomonas aeruginosa. The experiment in a line: Antibacterial activity against Pseudomonas aeruginosa 21-2 assessed as inhibition of bacterial growth incubated for 18 hrs by agar dilution method.
Experiment [15] deals with Pseudomonas aeruginosa. Kind of experiment: Antibacterial activity against Pseudomonas aeruginosa 23-Y539 assessed as inhibition of bacterial growth incubated for 18 hrs by agar dilution method.
Experiment [16] has as its system Pseudomonas aeruginosa. The experiment in a line: Antibacterial activity against Pseudomonas aeruginosa 19-46 assessed as inhibition of bacterial growth incubated for 18 hrs by agar dilution method.
The subject of experiment [17] is Pseudomonas aeruginosa. Kind of experiment: Antibacterial activity against Pseudomonas aeruginosa 19-55 assessed as inhibition of bacterial growth incubated for 18 hrs by agar dilution method.
Experiment [18] has as its system Pseudomonas aeruginosa. Kind of experiment: Antibacterial activity against Pseudomonas aeruginosa 21-7 assessed as inhibition of bacterial growth incubated for 18 hrs by agar dilution method.
Experiment [19] concerns Pseudomonas aeruginosa. Kind of experiment: Antibacterial activity against Pseudomonas aeruginosa 23-Y364 assessed as inhibition of bacterial growth incubated for 18 hrs by agar dilution method.
In experiment [20] the test system is Escherichia coli. The experiment in a line: Antibacterial activity against ESBLs (-) Escherichia coli ATCC 25922 assessed as inhibition of bacterial growth incubated for 18 hrs by agar dilution method.
In experiment [21] the test system is Escherichia coli. Kind of experiment: Antibacterial activity against NDM-1 (+) Escherichia coli CDC 1001728 assessed as inhibition of bacterial growth incubated for 18 hrs by agar dilution method.
For experiment [22], the system named is Escherichia coli. Kind of experiment: Antibacterial activity against ESBLs (+) Escherichia coli 16-1 assessed as inhibition of bacterial growth incubated for 18 hrs by agar dilution method.
The test system of experiment [23] is Escherichia coli. The experiment in a line: Antibacterial activity against mcr-1 (+) Escherichia coli 08-85 assessed as inhibition of bacterial growth incubated for 18 hrs by agar dilution method.
The subject of experiment [24] is Klebsiella pneumoniae. The experiment in a line: Antibacterial activity against ESBLs (+) Klebsiella pneumoniae ATCC 700603 assessed as inhibition of bacterial growth incubated for 18 hrs by agar dilution method.
In experiment [25] the test system is Klebsiella pneumoniae. Kind of experiment: Antibacterial activity against NDM-1 (+) Klebsiella pneumoniae 2146 assessed as inhibition of bacterial growth incubated for 18 hrs by agar dilution method.
The test system of experiment [26] is Klebsiella pneumoniae. Kind of experiment: Antibacterial activity against ESBLs (+) Klebsiella pneumoniae 16-14 assessed as inhibition of bacterial growth incubated for 18 hrs by agar dilution method.
For experiment [27], the system named is Klebsiella pneumoniae. The experiment in a line: Antibacterial activity against NDM-1 (+) Klebsiella pneumoniae 09-20 assessed as inhibition of bacterial growth incubated for 18 hrs by agar dilution method.
Experiment [28] deals with Pseudomonas aeruginosa. The experiment in a line: Antibacterial activity against BL (+) Pseudomonas aeruginosa ATCC 27853 assessed as inhibition of bacterial growth incubated for 18 hrs by agar dilution method.

In the case of `NCCC[C@H](NC(=O)CCc1ccc(F)cc1)C(=O)Nc1ccc2ccccc2c1`, in experiment [1], the minimal inhibitory concentration (MIC) (in general, the least concentration at which growth counts as inhibited) turned out to be 8 µg/mL.
The same measure, in the same setting: under `NCCC[C@H](NC(=O)CCCc1ccccc1)C(=O)Nc1ccc2ccccc2c1` stands 8 µg/mL; under `NCCC[C@H](NC(=O)CCc1ccccc1)C(=O)Nc1ccc2ccccc2c1`, 2 µg/mL.
For `C[C@@H](O)[C@H]1C(=O)N2C(C(=O)O)=C(S[C@@H]3CN[C@H](C(=O)N(C)C)C3)[C@H](C)[C@H]12` [MEROPENEM], the MIC in experiment [2] is 2 µg/mL (≈ 5.22 µM); in experiment [3], 1 µg/mL (≈ 2.61 µM); in experiment [4], 0.5 µg/mL (≈ 1.3 µM); in experiment [5] it was 32 µg/mL (≈ 83.4 µM); in experiment [6], 128 µg/mL (≈ 334 µM); in experiment [7] it was greater than 256 µg/mL. In addition, the MIC in [8] amounted to 16 µg/mL (≈ 41.7 µM); in experiment [9] it was 0.125 µg/mL (≈ 0.326 µM); in experiment [10], 16 µg/mL (≈ 41.7 µM); in [11], 32 µg/mL (≈ 83.4 µM); in experiment [12] it was 32 µg/mL (≈ 83.4 µM); in experiment [13], 16 µg/mL (≈ 41.7 µM). Also, the minimum inhibitory concentration (MIC) worked out at 16 µg/mL (≈ 41.7 µM) in experiment [14]; 1 µg/mL (≈ 2.61 µM) in experiment [15]; 128 µg/mL (≈ 334 µM) in [16]; 128 µg/mL (≈ 334 µM) in experiment [17]; 16 µg/mL (≈ 41.7 µM) in experiment [18]; 2 µg/mL (≈ 5.22 µM) in experiment [19].
Take `CC(C)[C@@H](O/N=C(\C(=O)N[C@@H]1C(=O)N(OS(=O)(=O)O)C1(C)C)c1csc(N)n1)C(=O)O`: the MIC was 16 µg/mL (≈ 33.4 µM) in experiment [20]; 32 µg/mL (≈ 66.7 µM) in experiment [21]; 8 µg/mL (≈ 16.7 µM) in experiment [22]; 32 µg/mL (≈ 66.7 µM) in [23]; 64 µg/mL (≈ 133 µM) in experiment [24]; greater than 64 µg/mL in [25]. The MIC is 16 µg/mL (≈ 33.4 µM) in [26], 16 µg/mL (≈ 33.4 µM) in experiment [27], greater than 64 µg/mL in experiment [28] and greater than 64 µg/mL in [2].
Regarding `NCCC[C@H](NC(=O)c1ccc2ccccc2c1)C(=O)N[C@@H](Cc1ccccc1)C(N)=O`, in experiment [1], the minimal inhibitory concentration (MIC) was 8 µg/mL.
Consider `COc1ccc(CCC(=O)N[C@@H](CCCN)C(=O)Nc2ccc3ccccc3c2)cc1`, for which the MIC in [1] worked out at 8 µg/mL.
On the same count and under the same terms, with `CCOC(=O)[C@H](CCc1ccccc1)NC(=O)[C@H](CCCN)NC(=O)c1ccc2ccccc2c1` the figure was 8 µg/mL; with `COC(=O)[C@H](Cc1ccccc1)NC(=O)[C@H](CCCN)NC(=O)c1ccc2ccccc2c1`, 8 µg/mL.
Still for that read-out and setting: with `NCCC[C@H](NC(=O)Cc1ccc2ccccc2c1)C(=O)N[C@@H](Cc1ccccc1)C(=O)O` the figure was 8 µg/mL.
For `C[C@H]1[C@H](NC(=O)/C(=N\OCC(=O)N2CCC[C@@H]2C(=O)O)c2nsc(N)n2)C(=O)N1S(=O)(=O)O`, the MIC was 1 µg/mL (≈ 1.98 µM) in experiment [20]; 8 µg/mL (≈ 15.8 µM) in experiment [21]; 1 µg/mL (≈ 1.98 µM) in experiment [22]; greater than 64 µg/mL in experiment [23]; greater than 64 µg/mL in [24]; greater than 64 µg/mL in [25]. Further, the minimum inhibitory concentration (MIC) in experiment [26] is greater than 64 µg/mL; in experiment [27], 16 µg/mL (≈ 31.7 µM); in experiment [28], greater than 64 µg/mL; in experiment [2] it was greater than 64 µg/mL.
Take `CC(C)[C@H](O/N=C(\C(=O)N[C@@H]1C(=O)N(OS(=O)(=O)O)C1(C)C)c1csc(N)n1)C(=O)O`: the minimum inhibitory concentration (MIC) in [20] was determined as 0.25 µg/mL (≈ 0.521 µM); in [21], 0.5 µg/mL (≈ 1.04 µM); in experiment [22], 0.125 µg/mL (≈ 0.261 µM); in [23], 0.25 µg/mL (≈ 0.521 µM); in experiment [24], 2 µg/mL (≈ 4.17 µM); in experiment [25] it was 1 µg/mL (≈ 2.09 µM). In addition, the MIC in experiment [26] was determined as 0.125 µg/mL (≈ 0.261 µM); in experiment [27], 0.25 µg/mL (≈ 0.521 µM); in experiment [28], 8 µg/mL (≈ 16.7 µM); in [2] it was 4 µg/mL (≈ 8.34 µM).
In the case of `NCCC[C@H](NC(=O)CCc1cc(F)cc(F)c1)C(=O)Nc1ccc2ccccc2c1`, the MIC in [1] was determined as 2 µg/mL.

(Values after ChEMBL document CHEMBL5625252, “Synthesis of peptidomimetics as antibiotic adjuvants for combination with aztreonam to combat MDR Pseudomonas aeruginosa” (Eur J Med Chem, 2023).)
